From paper PMC5471521, “Novel selective β1-adrenoceptor antagonists for concomitant cardiovascular and respiratory disease” (The FASEB Journal, 2017)

Tests used:
[1] = target: dopamine transporter (Homo sapiens, UniProt Q01959); assay: Cerep radioligand-binding assay
Method: (§1) […]; Ki (inhibition constant) was calculated by using the Cheng-Prusoff equation from the mean of duplicate determinations in cell-based receptor radioligand-binding assays. Cerep in vitro pharmacology profiling service was used (see the Supplemental Data for a list of the assays used).

[2] = target: noradrenaline transporter (Homo sapiens, UniProt P23975); assay: Cerep radioligand-binding assay
noradrenaline transporter, sequence (P23975 whole entry): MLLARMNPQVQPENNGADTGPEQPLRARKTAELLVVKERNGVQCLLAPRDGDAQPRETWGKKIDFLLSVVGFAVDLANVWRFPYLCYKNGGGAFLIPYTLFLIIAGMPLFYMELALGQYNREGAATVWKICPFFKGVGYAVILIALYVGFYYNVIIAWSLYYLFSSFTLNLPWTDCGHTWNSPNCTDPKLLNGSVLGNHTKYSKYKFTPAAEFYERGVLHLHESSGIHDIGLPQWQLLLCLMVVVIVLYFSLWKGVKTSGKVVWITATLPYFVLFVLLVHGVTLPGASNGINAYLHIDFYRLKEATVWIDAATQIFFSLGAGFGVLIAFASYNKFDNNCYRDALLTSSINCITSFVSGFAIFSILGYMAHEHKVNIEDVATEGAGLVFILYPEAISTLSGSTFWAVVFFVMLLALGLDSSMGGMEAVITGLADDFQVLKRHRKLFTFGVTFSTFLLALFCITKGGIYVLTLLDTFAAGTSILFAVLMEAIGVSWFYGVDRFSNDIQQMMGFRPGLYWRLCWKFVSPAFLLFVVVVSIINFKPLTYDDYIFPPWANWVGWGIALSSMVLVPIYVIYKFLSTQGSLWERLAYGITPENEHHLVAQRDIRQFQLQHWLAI
Method: as §1

[3] = Protein binding by ultracentrifugation, human plasma; format: in vitro ADME; settings: read-out: fu human plasma
Method: Protein binding of 1 µM NDD-713.HCl and -825.HCl in human and rat plasma, as well as human liver microsomes, was assessed by using the ultracentrifugation technique. Frozen human plasma (Australian Red Cross Blood Service, Melbourne, VIC, Australia) and rat plasma (male Sprague-Dawley rats; Charles River, Margate, Kent, United Kingdom) were thawed at 37°C. Human liver microsomes (XenoTech) were suspended in 0.1 M phosphate buffer (pH 7.4) at protein concentrations of 0.4 mg/ml. Samples were collected immediately as stability reference controls. Spiked plasma samples (but not microsome samples) were incubated at 37°C for 1 h. […] NDD-713.HCl and -825.HCl concentrations of noncentrifuged matrix and protein-free supernatant were determined by UPLC-MS relative to calibration standards prepared in the respective matrices. Total concentration (Ctotal) was the average measured concentration in […] samples maintained at 37°C, and unbound concentration (Cunbound) was the average measured concentration in protein-free supernatants from centrifuged samples (n = 3). The compound unbound fraction (fu) was calculated: fu = Cunbound/Ctotal. Compound degradation was assessed by comparing concentrations in noncentrifuged plasma samples that were incubated at 37°C with concentrations measured in the t = 0 noncentrifuged samples. […]

[4] = target: T1, CYP2A6 (Homo sapiens, UniProt P11509); assay: P450 in vitro clearance, recombinant Supersomes; format: in vitro ADME; settings: 2 μM, hydrochloride salts used
T1 construct: purchased BD Biosciences
T1 sequence (P11509 whole entry): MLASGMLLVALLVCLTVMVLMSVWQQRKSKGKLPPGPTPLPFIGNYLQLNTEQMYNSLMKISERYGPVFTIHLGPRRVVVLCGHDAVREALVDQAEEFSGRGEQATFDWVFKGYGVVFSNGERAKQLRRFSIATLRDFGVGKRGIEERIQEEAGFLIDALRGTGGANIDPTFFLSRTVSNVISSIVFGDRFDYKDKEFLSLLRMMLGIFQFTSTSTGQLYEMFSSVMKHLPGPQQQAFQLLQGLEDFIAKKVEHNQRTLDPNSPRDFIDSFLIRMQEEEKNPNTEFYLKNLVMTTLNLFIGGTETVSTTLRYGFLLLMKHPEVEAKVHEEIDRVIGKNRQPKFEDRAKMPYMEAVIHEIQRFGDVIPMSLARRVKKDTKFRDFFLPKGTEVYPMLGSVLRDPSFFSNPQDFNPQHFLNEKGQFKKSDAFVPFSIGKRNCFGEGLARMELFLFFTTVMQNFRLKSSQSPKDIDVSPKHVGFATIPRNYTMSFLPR
Method: (§2) NDD-713.HCl and -825.HCl (2 μM) and cytochrome P450 (P450) reference substrates (see Supplemental Data for full details) were incubated (37°C) with selected recombinant human P450 isoforms (CYP1A2, CYP2A6, CYP2B6, CYP2C8, CYP2C9, CYP2C19, CYP2D6 CYP2E1, and CYP3A4) in heterologously expressed P450 Supersomes (BD Biosciences) that were suspended in […] Tris-HCl buffer (pH 7.4; for CYP2C9) or 100 mM phosphate buffer (pH 7.4; for the other isoforms) at final P450 concentrations of 85 pmol/ml. Reactions were initiated by additions of an NADPH-regenerating system and quenched at time points over 60 min (reference probes) or 120 min (test compounds) by acetonitrile. Quenched samples were centrifuged and supernatants were collected. NDD-713, -825, and probe metabolites were determined by UPLC-MS relative to calibration standards prepared in quenched matrix, and %substrate that remained was calculated relative to the initial sample concentration. The %substrate that remained vs. time was fitted to exponential decay functions to determine the pseudo first-order rate constant (k/min) for substrate depletion. These were normalized to P450 concentrations (pmol/ml) to obtain in vitro CLint values: CLint, in vitro (μl/min/pmol P450) = [k (min^−1)/P450 concentration […]] × 1000. Studies were carried out by CDCO.

[5] = system: HR (β1) and HQC (β2) in conscious rats; assay: In vivo β1- vs. β2-selectivity, intravenous β-blocker, conscious rats (isoprenaline responses); set-up: species or system rat; settings: i.v. 2 mg/kg bolus + 1 mg/kg/h infusion, n = 4
Method: Adult male Sprague-Dawley rats, weighing 300−400 g, were chronically instrumented with pulsed Doppler flow probes and intravascular catheters for cardiovascular monitoring and drug administration in a 2-stage surgical protocol as described ([51]). Surgery was performed under general anesthesia (fentanyl and medetomidine, 300 μg/kg of each, i.p.), with reversal and postoperative analgesia provided by atipamezole (1 mg/kg, s.c.) and buprenorphine (0.02 mg/kg, s.c.). Experiments were performed with animals that were fully conscious and unrestrained in home cages and given free access to food and water. Cardiovascular variables were recorded by using a customized, computer-based system (Instrument Development Engineering Evaluation, Maastrich Instruments Bv, Maastrich, The Netherlands) with raw data sampled every 2 ms. Hindquarters vascular conductance (HQC) was calculated as Doppler shift (flow)/mean arterial pressure.
Isoprenaline infusions were repeated during the final 60 min of β-blocker infusion and 3–4 and 23–24 h after β-blocker infusions finished.
Isoprenaline responses shown are absolute values for HR and HQC before the first dose of isoprenaline (baseline) and during the third minute of infusion of each dose. Values at baseline and during the highest isoprenaline dose were tested for statistical significance by using a nonparametric ANOVA test with correction for repeat measures [Quade test ([52])]. A value of P < 0.05 was taken as significant.

[6] = system: Salmonella typhimurium strains TA98, TA100, TA1535, and TA1537; settings: concentrations of ≤10 μM, with or without rat liver S9
Method: Ames fluctuation assays were performed by using Salmonella typhimurium strains TA98, TA100, TA1535, and TA1537 to detect frame-shifts and base substitutions that led to missense mutations in liquid culture in 384-well plates. Bacterial plates were incubated with serially diluted NDD-713 and -825 solutions for 96 h, and bacterial growth was measured spectrophotometrically by using a pH color-change indicator in response to bacterial growth acidification. Assays were conducted with or without metabolic activation via addition of rat liver S9 fraction. Bacteriocidal or bacteriostatic effects were assessed by using a bacterial cytotoxicity assay that was conducted in parallel with Ames fluctuation assays. Reference compounds were 2-aminoanthracene, 9-aminoacridine, quercetin, streptozotocin (genotoxicity), and mitomycin C (bacterial cytotoxicity). Study was carried out by Cerep (Celle L’Evescault, France).

[7] = target: CYP2D6 (Homo sapiens, UniProt P10635); assay: P450 in vitro clearance, recombinant Supersomes; format: in vitro ADME; settings: 2 μM, hydrochloride salts used; one value printed for CYP2D6 and CYP2E1
CYP2D6, sequence (P10635 whole entry): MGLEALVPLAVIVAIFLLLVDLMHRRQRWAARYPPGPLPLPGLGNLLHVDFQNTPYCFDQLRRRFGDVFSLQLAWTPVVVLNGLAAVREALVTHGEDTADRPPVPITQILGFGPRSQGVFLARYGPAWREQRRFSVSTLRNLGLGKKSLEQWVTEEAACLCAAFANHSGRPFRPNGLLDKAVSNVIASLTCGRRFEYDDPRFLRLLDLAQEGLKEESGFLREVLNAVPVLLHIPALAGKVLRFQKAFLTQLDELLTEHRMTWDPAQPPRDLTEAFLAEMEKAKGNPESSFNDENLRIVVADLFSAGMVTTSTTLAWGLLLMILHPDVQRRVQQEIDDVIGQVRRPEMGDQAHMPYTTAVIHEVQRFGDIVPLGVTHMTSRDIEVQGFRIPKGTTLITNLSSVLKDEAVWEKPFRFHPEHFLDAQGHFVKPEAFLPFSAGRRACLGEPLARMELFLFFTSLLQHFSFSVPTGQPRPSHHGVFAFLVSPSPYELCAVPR
Method: as §2

[8] = target: T2, CYP2E1 (Homo sapiens, UniProt P05181); assay: P450 in vitro clearance, recombinant Supersomes; format: in vitro ADME; settings: 2 μM, hydrochloride salts used; one value printed for CYP2D6 and CYP2E1
T2 construct: purchased BD Biosciences
T2 sequence (P05181 whole entry): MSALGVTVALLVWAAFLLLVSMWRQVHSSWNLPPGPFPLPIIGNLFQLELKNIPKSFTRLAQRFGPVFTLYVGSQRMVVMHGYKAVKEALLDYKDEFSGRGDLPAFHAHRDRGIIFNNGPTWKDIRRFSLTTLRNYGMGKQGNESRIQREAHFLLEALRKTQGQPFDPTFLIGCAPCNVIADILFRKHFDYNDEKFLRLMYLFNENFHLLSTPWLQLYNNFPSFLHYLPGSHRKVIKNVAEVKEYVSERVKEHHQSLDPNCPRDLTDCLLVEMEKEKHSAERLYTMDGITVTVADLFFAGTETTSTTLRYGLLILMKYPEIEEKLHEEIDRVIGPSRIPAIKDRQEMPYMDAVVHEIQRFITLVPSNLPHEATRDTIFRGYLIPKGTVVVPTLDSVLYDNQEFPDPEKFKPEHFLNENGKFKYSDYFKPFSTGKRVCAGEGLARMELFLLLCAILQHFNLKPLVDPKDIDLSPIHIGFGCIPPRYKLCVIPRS
Method: as §2

[9] = concentration-response, Cheng-Prusoff

dopamine transporter, sequence (Q01959 whole entry): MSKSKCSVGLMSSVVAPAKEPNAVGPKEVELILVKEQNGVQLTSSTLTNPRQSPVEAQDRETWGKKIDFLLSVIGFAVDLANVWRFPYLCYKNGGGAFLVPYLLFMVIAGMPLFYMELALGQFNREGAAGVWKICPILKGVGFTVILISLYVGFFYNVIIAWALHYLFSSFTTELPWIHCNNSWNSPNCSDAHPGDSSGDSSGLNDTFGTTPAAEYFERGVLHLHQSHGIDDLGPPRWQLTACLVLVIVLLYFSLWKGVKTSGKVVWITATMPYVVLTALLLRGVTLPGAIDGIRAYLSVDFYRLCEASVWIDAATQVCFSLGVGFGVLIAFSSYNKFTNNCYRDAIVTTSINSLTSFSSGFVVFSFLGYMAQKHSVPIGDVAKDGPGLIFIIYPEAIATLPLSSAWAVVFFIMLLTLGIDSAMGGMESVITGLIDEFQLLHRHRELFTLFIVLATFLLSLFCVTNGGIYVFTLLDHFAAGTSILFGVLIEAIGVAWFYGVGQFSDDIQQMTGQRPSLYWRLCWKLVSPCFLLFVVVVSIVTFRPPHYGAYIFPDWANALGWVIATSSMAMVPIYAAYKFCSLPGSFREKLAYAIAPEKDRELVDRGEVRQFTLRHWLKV

SMILES: NC(=O)c1ccc(OCCNC[C@H](O)COc2ccc3c(c2)OC[C@@H](COCC2CC2)O3)cc1 [NDD-713]
- β1-AR vs. dopamine transporter selectivity [1]: 53 fold
- Ki [1, 9]: 800 nM
- β1-AR vs. noradrenaline transporter selectivity [2]: 185 fold
- Ki [2, 9]: 2800 nM
- fraction unbound at 1 h, 1 µM [3]: 0.15
- P450 in vitro clearance CLint, CYP2A6 [4]: 0.02 μl/min/pmol P450
- Effect on basal and isoprenaline-stimulated HR (β1) [5]: suppressed basal and isoprenaline-induced HR
- Effect on isoprenaline HQC response (β2) [5]: no effect on HQC responses
- Genotoxicity in Ames tests [6]: Neither compound displayed genotoxicity

SMILES: O=C1NCc2cc(OCCNC[C@H](O)COc3ccc4c(c3)OC[C@@H](COCC3CC3)O4)ccc21 [NDD-825]
- fraction unbound at 1 h, 1 µM [3]: 0.01
- P450 in vitro clearance CLint, CYP2D6 [7]: 0.02 μl/min/pmol P450
- P450 in vitro clearance CLint, CYP2E1 [8]: 0.02 μl/min/pmol P450
- Effect on basal and isoprenaline-stimulated HR (β1) [5]: suppressed basal and isoprenaline-induced HR
- Effect on isoprenaline HQC response (β2) [5]: no effect on HQC responses
- Genotoxicity in Ames tests [6]: Neither compound displayed genotoxicity
